In Sander's compilation of Henry's law constants (doi:10.1080/00039896.1979.10667371):

Experiment: Henry solubility constant Hcp at 310 K (mol/(m3 Pa))
Details: reference: Sato and Nakajima (1979b)

First: CC(Cl)CCl (stereo not drawn) [1,2-dichloropropane]
Second: ClCC(Cl)Cl [1,1,2-trichloroethane]
The “Henry solubility constant Hcp at 310 K” value of the first is lower: 0.0021 for the first, 0.0066 for the second.

Compared with `ClC=C(Cl)Cl` [trichloroethene], `ClC(Cl)=C(Cl)Cl` [tetrachloroethene] is lower in “Henry solubility constant Hcp at 310 K” value: 0.0005 for the first, 0.00017 for the second.

First: ClCCl [dichloromethane]
Second: ClCC(Cl)(Cl)Cl [1,1,1,2-tetrachloroethane]
The “Henry solubility constant Hcp at 310 K” value of the first is higher: 0.0028 for the first, 0.0021 for the second.

Compared with `Clc1cccc(Cl)c1` [1,3-dichlorobenzene], `Clc1ccccc1` [chlorobenzene] is lower in “Henry solubility constant Hcp at 310 K” value: 0.0021 for the first, 0.0016 for the second.

Compared with `CC(Cl)(Cl)Cl` [1,1,1-trichloroethane], `ClC(Cl)(Cl)Cl` [tetrachloromethane] is lower in “Henry solubility constant Hcp at 310 K” value: 0.00036 for the first, 9.7e-05 for the second.

First: CCCCCCl [1-chloropentane]
Second: CCCCCl [1-chlorobutane]
The “Henry solubility constant Hcp at 310 K” value of the first is lower: 0.00027 for the first, 0.00033 for the second.

For `ClC(Cl)C(Cl)Cl` [1,1,2,2-tetrachloroethane], the “Henry solubility constant Hcp at 310 K” value was 0.014.
